Results reported in patent publication US8940756B2, “Dihydronaphthyridines and related compounds useful as kinase inhibitors for the treatment of proliferative diseases” (Deciphera Pharmaceuticals, Inc., priority 2012, dated 2015).

Legend:
[1] = target: T1, c-KIT kinase (Seq ID no. 1) (Homo sapiens, UniProt P10721); assay: c-KIT Kinase Assay (pyruvate kinase/lactate dehydrogenase coupled); format: biochemical; details: enzymatic assay, ATP 200 μM; read-out: KIT (wt)
T1 construct: GST (N); TEV cleavage site (N); purchased deCODE Biostructures
T1 sequence (P10721 with tags, fused parts or gaps): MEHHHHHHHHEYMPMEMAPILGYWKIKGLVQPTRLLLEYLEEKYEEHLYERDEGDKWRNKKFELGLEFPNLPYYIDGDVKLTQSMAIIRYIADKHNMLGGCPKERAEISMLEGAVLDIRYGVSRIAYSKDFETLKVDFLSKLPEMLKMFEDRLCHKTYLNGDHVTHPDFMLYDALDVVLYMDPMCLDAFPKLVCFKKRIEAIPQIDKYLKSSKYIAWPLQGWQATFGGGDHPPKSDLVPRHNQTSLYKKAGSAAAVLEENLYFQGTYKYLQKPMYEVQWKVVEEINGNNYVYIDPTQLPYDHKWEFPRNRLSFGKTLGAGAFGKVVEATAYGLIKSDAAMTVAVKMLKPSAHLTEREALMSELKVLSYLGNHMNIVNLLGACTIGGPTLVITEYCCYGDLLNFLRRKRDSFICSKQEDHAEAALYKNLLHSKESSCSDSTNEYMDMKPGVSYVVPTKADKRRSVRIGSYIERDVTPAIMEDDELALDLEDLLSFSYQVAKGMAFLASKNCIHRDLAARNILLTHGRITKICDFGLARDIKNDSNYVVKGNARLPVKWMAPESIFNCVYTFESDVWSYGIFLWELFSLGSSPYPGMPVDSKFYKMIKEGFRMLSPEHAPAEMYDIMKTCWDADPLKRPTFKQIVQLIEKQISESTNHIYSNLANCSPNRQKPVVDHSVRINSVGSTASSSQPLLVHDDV

[2] = target: T2, c-KIT D816H kinase (Seq ID no. 3) (Homo sapiens, UniProt P10721, D816H); assay: c-KIT D816H Kinase Assay; format: biochemical; details: enzymatic assay, ATP 200 μM
T2 construct: GST (N); TEV cleavage site (N); purchased deCODE Biostructures
T2 sequence (P10721 544-976 D816H): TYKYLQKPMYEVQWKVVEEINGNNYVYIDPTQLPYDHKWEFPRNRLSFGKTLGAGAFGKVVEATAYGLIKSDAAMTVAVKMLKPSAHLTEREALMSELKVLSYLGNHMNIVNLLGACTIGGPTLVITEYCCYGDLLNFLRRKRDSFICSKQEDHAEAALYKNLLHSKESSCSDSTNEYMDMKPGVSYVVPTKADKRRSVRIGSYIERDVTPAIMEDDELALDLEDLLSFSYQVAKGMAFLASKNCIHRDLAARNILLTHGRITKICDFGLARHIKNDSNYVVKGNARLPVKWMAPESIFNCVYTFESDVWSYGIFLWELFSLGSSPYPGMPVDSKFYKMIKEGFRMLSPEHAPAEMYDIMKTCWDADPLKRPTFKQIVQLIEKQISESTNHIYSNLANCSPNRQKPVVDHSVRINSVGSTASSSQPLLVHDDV

[3] = target: T3, c-KIT D816V kinase (Seq ID no. 4) (Homo sapiens, UniProt P10721, D816V); assay: c-KIT D816V kinase Assay; format: biochemical; details: enzymatic assay, ATP 200 uM
T3 construct: D816V c-KIT (residues T544-V976 with N-terminal GST fusion, 16 nM); purchased deCODE Biostructures
T3 sequence (P10721 544-976 D816V): as the sequence (P10721 544-976 D816H) above, with H273V counted along it

[4] = target: T4, c-KIT T670I kinase (Seq ID no. 6) (Homo sapiens, UniProt P10721, T670I); assay: c-KIT T670I Kinase Assay; format: biochemical; details: enzymatic assay, ATP 200 uM
T4 construct: GST (N); TEV cleavage site (N); purchased deCODE Biostructures
T4 sequence (P10721 544-976 T670I): as the sequence (P10721 544-976 D816H) above, with T127I, H273D counted along it

[5] = target: Phospho-KIT (Tyr719) in GIST430 cells (Homo sapiens, UniProt P10721); assay: GIST430 KIT Western Blot; format: cell-based; details: 4 hours, read-out: pKIT suppression by western blot analysi GIST430
Phospho-KIT (Tyr719) in GIST430 cells, sequence (P10721 with tags, fused parts or gaps DEL560-576/V654A, form open): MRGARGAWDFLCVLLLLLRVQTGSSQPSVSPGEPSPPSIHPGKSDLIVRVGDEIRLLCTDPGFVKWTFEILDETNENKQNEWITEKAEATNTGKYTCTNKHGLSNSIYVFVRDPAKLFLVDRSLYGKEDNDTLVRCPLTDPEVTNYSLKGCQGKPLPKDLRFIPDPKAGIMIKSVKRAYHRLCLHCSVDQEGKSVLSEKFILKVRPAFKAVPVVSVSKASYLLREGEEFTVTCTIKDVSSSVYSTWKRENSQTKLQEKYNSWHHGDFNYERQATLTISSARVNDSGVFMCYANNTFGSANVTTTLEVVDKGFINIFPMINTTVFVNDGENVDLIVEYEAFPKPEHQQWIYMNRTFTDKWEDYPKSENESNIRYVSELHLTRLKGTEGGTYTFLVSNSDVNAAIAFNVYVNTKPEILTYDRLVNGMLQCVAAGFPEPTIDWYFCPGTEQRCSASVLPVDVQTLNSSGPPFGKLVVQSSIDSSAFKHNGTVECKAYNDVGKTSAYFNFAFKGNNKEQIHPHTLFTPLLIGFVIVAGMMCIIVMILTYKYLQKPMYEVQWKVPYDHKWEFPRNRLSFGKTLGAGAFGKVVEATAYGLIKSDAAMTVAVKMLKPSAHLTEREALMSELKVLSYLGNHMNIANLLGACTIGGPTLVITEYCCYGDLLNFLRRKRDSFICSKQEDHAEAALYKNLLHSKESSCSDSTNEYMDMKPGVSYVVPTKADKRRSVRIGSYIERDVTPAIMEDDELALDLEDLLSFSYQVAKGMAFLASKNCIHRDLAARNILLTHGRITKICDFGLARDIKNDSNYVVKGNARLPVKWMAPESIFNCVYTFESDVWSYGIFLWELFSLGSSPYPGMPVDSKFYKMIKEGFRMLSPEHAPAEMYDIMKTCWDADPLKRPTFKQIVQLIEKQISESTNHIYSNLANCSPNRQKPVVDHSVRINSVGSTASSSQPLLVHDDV

[6] = target: T5, Phospho-KIT (Tyr719) in GIST882 cells (Homo sapiens, UniProt P10721, K642E); assay: GIST882 KIT Western Blot; format: cell-based; details: 4 hours, read-out: pKIT suppression by western blot analysi GIST 882
T5 construct: endogenous in cells; host or cells: GIST882
T5 sequence (P10721 26-976 K642E): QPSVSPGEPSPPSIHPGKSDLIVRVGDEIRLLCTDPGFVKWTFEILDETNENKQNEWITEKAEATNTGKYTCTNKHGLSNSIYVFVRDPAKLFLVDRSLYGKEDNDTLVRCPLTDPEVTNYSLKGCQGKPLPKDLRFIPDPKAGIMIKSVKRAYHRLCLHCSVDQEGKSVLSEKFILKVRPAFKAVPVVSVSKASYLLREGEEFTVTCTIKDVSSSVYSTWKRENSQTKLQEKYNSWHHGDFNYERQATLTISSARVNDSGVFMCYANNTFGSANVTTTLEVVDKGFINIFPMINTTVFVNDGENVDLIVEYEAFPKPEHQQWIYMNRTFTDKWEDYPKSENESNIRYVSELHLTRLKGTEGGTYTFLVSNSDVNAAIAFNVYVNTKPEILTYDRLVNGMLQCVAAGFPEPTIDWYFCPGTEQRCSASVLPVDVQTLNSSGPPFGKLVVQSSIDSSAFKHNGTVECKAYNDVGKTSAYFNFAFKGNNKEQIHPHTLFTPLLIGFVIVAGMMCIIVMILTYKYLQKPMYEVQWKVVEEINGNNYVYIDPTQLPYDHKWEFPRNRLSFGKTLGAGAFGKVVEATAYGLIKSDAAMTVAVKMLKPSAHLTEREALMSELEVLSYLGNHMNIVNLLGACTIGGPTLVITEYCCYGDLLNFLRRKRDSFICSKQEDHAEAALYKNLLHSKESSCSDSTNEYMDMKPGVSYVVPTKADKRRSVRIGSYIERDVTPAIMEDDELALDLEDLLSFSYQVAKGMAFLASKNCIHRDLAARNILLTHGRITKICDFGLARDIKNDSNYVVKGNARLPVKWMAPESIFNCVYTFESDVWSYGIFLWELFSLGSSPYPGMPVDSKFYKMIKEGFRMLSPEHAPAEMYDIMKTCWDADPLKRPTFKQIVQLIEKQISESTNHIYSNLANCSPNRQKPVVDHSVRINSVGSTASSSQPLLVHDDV
Procedure: GIST48, GIST430, and GIST882 cells were obtained from J. Fletcher (Brigham and Women's Hospital, Boston, Mass.). GIST T1 cells were obtained from B. Rubin (Cleveland Clinic, Cleveland, Ohio) and Professor Takahiro Taguchi (Kochi Medical School, Nankoku, Kochi, Japan). […] GIST430 cells were grown in Ham's F10 medium supplemented with 15% characterized fetal bovine serum (Invitrogen, Carlsbad, Calif.), 30 mg/L bovine pituitary extract (BD Biosciences, San Jose, Calif.), 0.5% Mito+ serum extender (BD Biosciences, San Jose, Calif.), 1 unit/mL penicillin G, 1 μg/ml streptomycin, and 0.29 mg/mL L-glutamine at 37° C., 5% CO2, 95% humidity. GIST T1 cells were grown in DMEM medium supplemented with 10% characterized fetal bovine serum (Invitrogen, Carlsbad, Calif.), 1 unit/mL penicillin G, 1 ng/ml streptomycin, and 0.29 mg/mL L-glutamine at 37° C., 5% CO2, and 95% humidity. Cells were allowed to expand until reaching 70-95% confluence at which point they were subcultured or harvested for assay use.
Two hundred fifty thousand cells were added per well in a 24-well tissue-culture treated plate. Cells were then incubated overnight at 37° C., 5% CO2, 95% humidity. Medium was aspirated, cells were washed with PBS, and serum-free RPMI1640 medium was added. A serial dilution of test compound was added to plates containing cells and plates were incubated for 4 hours at 37° C., 5% CO2, 95% humidity. Cells were washed with PBS, then lysed. Cell lysates were separated by SDS-PAGE and transferred to PVDF. Phospho-KIT (Tyr719) was detected using an antibody from Cell Signaling Technology (Beverly, Mass.), ECL Plus detection reagent (GE Healthcare, Piscataway, N.J.) and a Molecular Devices Storm 840 phosphorimager in fluorescence mode. Blots were stripped and probed for total KIT using an antibody from Santa Cruz Biotech (Santa Cruz, Calif.). IC50 values were calculated using Prism software (Graphpad, San Diego, Calif.).

IC50 [1] [nM] | IC50 [2] [nM] | IC50 [3] [nM] | IC50 [4] [nM] | IC50 [5] [nM] | IC50 [6] [nM] | SMILES
< 10 | < 10 | 10 to 100 | < 10 | < 10 | 10 to 100 | CCn1c(=O)c(-c2cc(NC(=O)Nc3ccccc3)c(F)cc2Cl)cc2cnc(N)cc21 [Example 21, 1-(5-(7-amino-1-ethyl-2-oxo-1,2-dihydro-1,6-naphthyridin-3-yl)-4-chloro-2-fluorophenyl)-3-phenylurea]
< 10 | 10 to 100 | 100 to 1000 | 10 to 100 | 10 to 100 | > 1000 | CCn1c(=O)c(-c2cc(NC(=O)Nc3cccc(CN4CCN(C)CC4)c3)c(F)cc2Cl)cc2cnc(NC)cc21 [Example 79, 1-(4-chloro-5-(1-ethyl-7-(methylamino)-2-oxo-1,2-dihydro-1,6-naphthyridin-3-yl)-2-fluorophenyl)-3-(3-((4-methylpiperazin-1-yl)methyl)phenyl)urea]
< 10 | 10 to 100 | 100 to 1000 | 10 to 100 | 10 to 100 | 100 to 1000 | CCn1c(=O)c(-c2cc(NC(=O)Nc3cc(F)cc(CN4CCN(C)CC4)c3)c(F)cc2Cl)cc2cnc(NC)cc21 [Example 88, 1-(4-chloro-5-(1-ethyl-7-(methylamino)-2-oxo-1,2-dihydro-1,6-naphthyridin-3-yl)-2-fluorophenyl)-3-(3-fluoro-5-((4-methylpiperazin-1-yl)methyl)phenyl)urea]
